Assay results published in BindingDB's records for doi:10.1016/j.bmcl.2009.09.017 (Pfizer, 2009).

Experiment: Antagonist activity at P2Y12 receptor in human platelet rich plasma assessed as inhibition of ADP-induced platelet aggregation by light transmission aggregometry

SMILES	IC50
CCCCCOC(=O)N1CCN(C(=O)[C@H](CCC(=O)O)NC(=O)c2cc(N3CCC(CC(=O)NCC)CC3)nc(-c3ccccc3)n2)CC1 [(S)-4-(6-(4-(2-(ethylamino)-2-oxoethyl)piperidin-1-yl)-2-phenylpyrimidine-4-carboxamido)-5-oxo-5-(4-(pentyloxycarbonyl)piperazin-1-yl)pentanoic acid]	1600 nM
CCCCCOC(=O)N1CCN(C(=O)[C@H](CCC(=O)O)NC(=O)c2nc(-c3ccccc3)cc(N3CCC(COCCOC)CC3)n2)CC1 [(S)-4-(4-(4-((2-methoxyethoxy)methyl)piperidin-1-yl)-6-phenylpyrimidine-2-carboxamido)-5-oxo-5-(4-(pentyloxycarbonyl)piperazin-1-yl)pentanoic acid]	> 10000 nM
CCCCCOC(=O)N1CCN(C(=O)[C@H](CCC(=O)O)NC(=O)c2cc(N3CCC(C(=O)N(CC)CC)CC3)nc(-c3ccccc3)n2)CC1 [(S)-4-(6-(4-(diethylcarbamoyl)piperidin-1-yl)-2-phenylpyrimidine-4-carboxamido)-5-oxo-5-(4-(pentyloxycarbonyl)piperazin-1-yl)pentanoic acid]	400 nM
CCCCCOC(=O)N1CCN(C(=O)[C@H](CCC(=O)O)NC(=O)c2cc(N3CCN(CCOC)CC3)nc(-c3ccccc3)n2)CC1 [(S)-4-(6-(4-(2-methoxyethyl)piperazin-1-yl)-2-phenylpyrimidine-4-carboxamido)-5-oxo-5-(4-(pentyloxycarbonyl)piperazin-1-yl)pentanoic acid]	2200 nM
CCCCCOC(=O)N1CCN(C(=O)[C@H](CCC(=O)O)NC(=O)c2cc(N3CCC(C(N)=O)CC3)nc(-c3ccccc3)n2)CC1 [(S)-4-(6-(4-carbamoylpiperidin-1-yl)-2-phenylpyrimidine-4-carboxamido)-5-oxo-5-(4-(pentyloxycarbonyl)piperazin-1-yl)pentanoic acid]	690 nM
CCCCOC(=O)N1CCN(C(=O)[C@H](CCC(=O)O)NC(=O)c2cc(N3CCC(OC)CC3)nc(-c3ccccc3)n2)CC1 [(S)-5-(4-(butoxycarbonyl)piperazin-1-yl)-4-(6-(4-methoxypiperidin-1-yl)-2-phenylpyrimidine-4-carboxamido)-5-oxopentanoic acid]	1800 nM
CCCCCOC(=O)N1CCN(C(=O)[C@H](CCC(=O)O)NC(=O)c2nc(-c3ccccc3)cc(N3CCN(C(N)=O)CC3)n2)CC1 [(S)-4-(4-(4-carbamoylpiperazin-1-yl)-6-phenylpyrimidine-2-carboxamido)-5-oxo-5-(4-(pentyloxycarbonyl)piperazin-1-yl)pentanoic acid]	3600 nM
CCCCCOC(=O)N1CCN(C(=O)[C@H](CCC(=O)O)NC(=O)c2cc(N3CCC(OCCOC)CC3)nc(-c3ccccc3)n2)CC1 [(S)-4-(6-(4-(2-methoxyethoxy)piperidin-1-yl)-2-phenylpyrimidine-4-carboxamido)-5-oxo-5-(4-(pentyloxycarbonyl)piperazin-1-yl)pentanoic acid]	1400 nM
CCCCCOC(=O)N1CCN(C(=O)[C@H](CCC(=O)O)NC(=O)c2cc(N3CCN(CC(=O)N4CCCC4)CC3)nc(-c3ccccc3)n2)CC1 [(S)-5-oxo-4-(6-(4-(2-oxo-2-(pyrrolidin-1-yl)ethyl)piperazin-1-yl)-2-phenylpyrimidine-4-carboxamido)-5-(4-(pentyloxycarbonyl)piperazin-1-yl)pentanoic acid]	1100 nM
CCCCCOC(=O)N1CCN(C(=O)[C@H](CCC(=O)O)NC(=O)c2cc(N3CCNCC3)nc(-c3ccccc3)n2)CC1 [(S)-5-oxo-5-(4-(pentyloxycarbonyl)piperazin-1-yl)-4-(2-phenyl-6-(piperazin-1-yl)pyrimidine-4-carboxamido)pentanoic acid]	1300 nM
CCCCCOC(=O)N1CCN(C(=O)[C@H](CCC(=O)O)NC(=O)c2cc(N3CCOCC3)nc(-c3ccccc3)n2)CC1 [(S)-4-(6-morpholino-2-phenylpyrimidine-4-carboxamido)-5-oxo-5-(4-(pentyloxycarbonyl)piperazin-1-yl)pentanoic acid]	6300 nM
CCCCOC(=O)N1CCN(C(=O)[C@H](CCC(=O)O)NC(=O)c2cc(OC3CCNCC3)nc(-c3ccccc3)n2)CC1 [(S)-5-(4-(butoxycarbonyl)piperazin-1-yl)-5-oxo-4-(2-phenyl-6-(piperidin-4-yloxy)pyrimidine-4-carboxamido)pentanoic acid]	1300 nM
CCCCOC(=O)N1CCN(C(=O)[C@H](CCC(=O)O)NC(=O)c2cc(N3CCC(CCOC)CC3)nc(-c3ccccc3)n2)CC1 [(S)-5-(4-(butoxycarbonyl)piperazin-1-yl)-4-(6-(4-(2-methoxyethyl)piperidin-1-yl)-2-phenylpyrimidine-4-carboxamido)-5-oxopentanoic acid]	1200 nM
CCCCCOC(=O)N1CCN(C(=O)[C@H](CCC(=O)O)NC(=O)c2cc(N3CCC(C(=O)N4CCCC4)CC3)nc(-c3ccccc3)n2)CC1 [(S)-5-oxo-5-(4-(pentyloxycarbonyl)piperazin-1-yl)-4-(2-phenyl-6-(4-(pyrrolidine-1-carbonyl)piperidin-1-yl)pyrimidine-4-carboxamido)pentanoic acid]	270 nM
CCCCCOC(=O)N1CCN(C(=O)[C@H](CCC(=O)O)NC(=O)c2nc(-c3ccccc3)cc(N3CCN(C(=O)N(C)C)CC3)n2)CC1 [(S)-4-(4-(4-(dimethylcarbamoyl)piperazin-1-yl)-6-phenylpyrimidine-2-carboxamido)-5-oxo-5-(4-(pentyloxycarbonyl)piperazin-1-yl)pentanoic acid]	> 10000 nM
CCCCCOC(=O)N1CCN(C(=O)[C@H](CCC(=O)O)NC(=O)c2cc(NCCCN(C)C)nc(-c3ccccc3)n2)CC1 [(S)-4-(6-(3-(dimethylamino)propylamino)-2-phenylpyrimidine-4-carboxamido)-5-oxo-5-(4-(pentyloxycarbonyl)piperazin-1-yl)pentanoic acid]	2600 nM
CCCCCOC(=O)N1CCN(C(=O)[C@H](CCC(=O)O)NC(=O)c2cc(N3CCC(CC(=O)N4CCCC4)CC3)nc(-c3ccccc3)n2)CC1 [(S)-5-oxo-4-(6-(4-(2-oxo-2-(pyrrolidin-1-yl)ethyl)piperidin-1-yl)-2-phenylpyrimidine-4-carboxamido)-5-(4-(pentyloxycarbonyl)piperazin-1-yl)pentanoic acid]	1500 nM
CCCCCOC(=O)N1CCN(C(=O)[C@H](CCC(=O)O)NC(=O)c2nc(-c3ccccc3)cc(N3CCN(CC(=O)N(C)C)CC3)n2)CC1 [(S)-4-(4-(4-(2-(dimethylamino)-2-oxoethyl)piperazin-1-yl)-6-phenylpyrimidine-2-carboxamido)-5-oxo-5-(4-(pentyloxycarbonyl)piperazin-1-yl)pentanoic acid]	3000 nM
CCCCCOC(=O)N1CCN(C(=O)[C@H](CCC(=O)O)NC(=O)c2cc(N3CCC(CCN(C)C)CC3)nc(-c3ccccc3)n2)CC1 [(S)-4-(6-(4-(2-(dimethylamino)ethyl)piperidin-1-yl)-2-phenylpyrimidine-4-carboxamido)-5-oxo-5-(4-(pentyloxycarbonyl)piperazin-1-yl)pentanoic acid]	400 nM
CCCCCOC(=O)N1CCN(C(=O)[C@H](CCC(=O)O)NC(=O)c2cc(N3CCC(C(=O)N4CCC4)CC3)nc(-c3ccccc3)n2)CC1 [(S)-4-(6-(4-(azetidine-1-carbonyl)piperidin-1-yl)-2-phenylpyrimidine-4-carboxamido)-5-oxo-5-(4-(pentyloxycarbonyl)piperazin-1-yl)pentanoic acid]	230 nM
CCCCCOC(=O)N1CCN(C(=O)[C@H](CCC(=O)O)NC(=O)c2nc(-c3ccccc3)cc(N3CCNCC3)n2)CC1 [(S)-5-oxo-5-(4-(pentyloxycarbonyl)piperazin-1-yl)-4-(4-phenyl-6-(piperazin-1-yl)pyrimidine-2-carboxamido)pentanoic acid]	5200 nM
CCCCCOC(=O)N1CCN(C(=O)[C@H](CCC(=O)O)NC(=O)c2cc(N3CCC(CC(=O)NC)CC3)nc(-c3ccccc3)n2)CC1 [(S)-4-(6-(4-(2-(methylamino)-2-oxoethyl)piperidin-1-yl)-2-phenylpyrimidine-4-carboxamido)-5-oxo-5-(4-(pentyloxycarbonyl)piperazin-1-yl)pentanoic acid]	1100 nM
CCCCCOC(=O)N1CCN(C(=O)[C@H](CCC(=O)O)NC(=O)c2cc(OCC3CCNCC3)nc(-c3ccccc3)n2)CC1 [(S)-5-oxo-5-(4-(pentyloxycarbonyl)piperazin-1-yl)-4-(2-phenyl-6-(piperidin-4-ylmethoxy)pyrimidine-4-carboxamido)pentanoic acid]	1700 nM
CCCCCOC(=O)N1CCN(C(=O)[C@H](CCC(=O)O)NC(=O)c2nc(OCCN(CC)CC)cc(-c3ccccc3)n2)CC1 [(S)-4-(4-(2-(diethylamino)ethoxy)-6-phenylpyrimidine-2-carboxamido)-5-oxo-5-(4-(pentyloxycarbonyl)piperazin-1-yl)pentanoic acid]	> 10000 nM
